Results: PMC5471204, “Autotransporter domain-dependent enzymatic analysis of a novel extremely thermostable carboxylesterase with high biodegradability towards pyrethroid pesticides” (Scientific Reports, 2017)

Legend:
EstPS1 [1] = tested on: T1, EstPS1; experiment: pesticide hydrolysis, gas chromatography, Lineweaver-Burk; assay type: biochemical, Pseudomonas synxantha; conditions: 50 mM Tris-HCl pH 8.0, 40 °C (degradation assay); stated substrate range 10 to 500 μM
T1 construct: full-length ORF with signal peptide (24 residues) and autotransporter domain (357-640); N-terminal His-tag, pET-28a, E. coli BL21(DE3), Ni-NTA; 640 residues, 68 kDa
From the text: pesticide hydrolysis, gas chromatography, Lineweaver-Burk on EstPS1

EstPS1 [2] = tested on: T1, EstPS1; experiment: p-nitrophenol release at […] nm, Lineweaver-Burk; assay type: biochemical, Pseudomonas synxantha; conditions: 50 mM Tris-HCl pH 8.0, 60 °C

## CC1(C)C(C=C(Cl)Cl)C1C(=O)OC(C#N)c1cccc(Oc2ccccc2)c1 (stereo not drawn) [cis-Cypermethrin]
EstPS1 [1]
  Km: 0.62 ± 0.031 µM

## CC(=O)Oc1ccc([N+](=O)[O-])cc1 [p-Nitrophenyl acetate]
EstPS1 [2]
  Km: 102 ± 12 µM

## CCCC(=O)Oc1ccc([N+](=O)[O-])cc1 [p-Nitrophenyl butyrate]
EstPS1 [2]
  Km: 43 ± 8 µM

## Cc1c(COC(=O)[C@@H]2[C@H](/C=C(\Cl)C(F)(F)F)C2(C)C)cccc1-c1ccccc1 (racemic) [Bifenthrin]
EstPS1 [1]
  Km: 1.25 ± 0.061 µM

## CCCCCCCC(=O)Oc1ccc([N+](=O)[O-])cc1 [p-Nitrophenyl caprylate]
EstPS1 [2]
  Km: 61 ± 10 µM

## CCCCCCCCCC(=O)Oc1ccc([N+](=O)[O-])cc1 [p-Nitrophenyl decanoate]
EstPS1 [2]
  Km: 362 ± 13 µM

## CC(C)C(C(=O)OC(C#N)c1cccc(Oc2ccccc2)c1)c1ccc(Cl)cc1 (stereo not drawn) [Fenvalerate]
EstPS1 [1]
  Km: 0.84 ± 0.042 µM

## CNC(=O)Oc1cccc2ccccc12 [Carbaryl]
EstPS1 [1]
  Km: 0.21 ± 0.01 µM

## CCCCCCCCCCCC(=O)Oc1ccc([N+](=O)[O-])cc1 [p-Nitrophenyl laurate]
EstPS1 [2]
  Km: 391 ± 9 µM

## CCCCCC(=O)Oc1ccc([N+](=O)[O-])cc1 [p-Nitrophenyl caproate]
EstPS1 [2]
  Km: 76 ± 7 µM

## CC1(C)C(C=C(Cl)Cl)C1C(=O)OC(C#N)c1cccc(Oc2ccccc2)c1 (stereo not drawn) [trans-Cypermethrin]
EstPS1 [1]
  Km: 0.53 ± 0.028 µM

## CC1(C)C(C(=O)OC(C#N)c2cccc(Oc3ccccc3)c2)C1(C)C (stereo not drawn) [Fenpropathrin]
EstPS1 [1]
  Km: 0.25 ± 0.014 µM
